Assay results published in BindingDB's records for doi:10.1021/jm960083n (Dupont Pharmaceuticals, 1996).

target: T1, Dimer of Gag-Pol polyprotein [489-587] (Human immunodeficiency virus 1, UniProt P12497); assay: Protease Inhibition Assay; details: pH 5.5; 37 °C
T1 construct: 489-587
Method: Inhibition of HIV protease was measured by assay of the cleavage of a fluorescent peptide substrate. The fluorescent product (2-aminobenzoyl-Ala-Thr-His-Gln-Val-Tyr) was separated from the fluorescent substrate by anion-exchange HPLC on a Mono-Q anion-exchange column (Pharmacia), and fluorescence was monitored at an excitation wavelength of 330 nm and an emission wavelength of 430 nm. Ki values for inhibitor binding were estimated at fixed concentrations of substrate and inhibitor from fractional activity measurements by use of the modified Michaelis-Menten equation.

Point of comparison: `CC(=O)c1cccc(CN2C(=O)N(Cc3cccc(C(C)=O)c3)[C@H](Cc3ccc4c(c3)OCO4)[C@H](O)[C@@H](O)[C@H]2Cc2ccc3c(c2)OCO3)c1` [(4R,5S,6S,7R)-Hexahydro-5,6-dihydroxy-1,3-bis(3-acetylbenzyl)-4,7-bis((3,4-(methylenedioxy)phenyl)methyl)-2H-1,3-diazapin-2-one], Ki 0.043 nM. Against it:
- COc1cc(C[C@@H]2[C@H](O)[C@@H](O)[C@@H](Cc3cc(OC)cc(OC)c3)N(Cc3cccc(C(C)=O)c3)C(=O)N2Cc2cccc(C(C)=O)c2)cc(OC)c1 [(4R,5S,6S,7R)-4,7-bis[(3,5-dimethoxyphenyl)methyl]-1,3-bis[(3-acetylphenyl)methyl]-5,6-dihydroxy-1,3-diazepan-2-one] — 9.3-fold higher, 0.4 nM
- CC(=O)c1cc(CN2C(=O)N(Cc3ccc(F)c(C(C)=O)c3)[C@H](Cc3ccc4c(c3)OCO4)[C@H](O)[C@@H](O)[C@H]2Cc2ccc3c(c2)OCO3)ccc1F [(4R,5S,6S,7R)-Hexahydro-5,6-dihydroxy-1,3-bis(4-fluoro-3-acetylbenzyl)-4,7-bis((3,4-(methylenedioxy)phenyl)methyl)-2H-1,3-diazapin-2-one] — 35-fold higher, 1.5 nM
- CC(=O)c1cccc(CN2C(=O)N(Cc3cccc(C(C)=O)c3)[C@H](Cc3ccc4c(c3)N(C)CCO4)[C@H](O)[C@@H](O)[C@H]2Cc2ccc3c(c2)N(C)CCO3)c1 [(4R,5S,6S,7R)-Hexahydro-5,6-dihydroxy-1,3-bis(3-acetylbenzyl)-4,7-bis((4-methyl-3,4-dihydro-2H-benzo[b][1,4]-oxazin-6-yl)methyl)-2H-1,3-diazapin-2-one] — 1.9-fold higher, 0.08 nM
